In patent publication US8168797B2, “Oxazolidinone derivative with difluorophenyl moiety, pharmaceutically acceptable salt thereof, preparation method thereof and antibiotic composition containing the same as an active ingredient” (Korea Institute of Science and Technology, priority 2008, dated 2012):
In brackets after ≈: the same amount, converted by molar mass.

Key:
Format in all cases: cell-based
[1] = tested on: Vancomycin resistant enterococci 1; test: MIC by agar dilution method using Muller-Hinton agar; settings: strain g: Vancomycin resistant enterococci 1; read-out: Inhibitory Activity (MIC)
From the text: (§1) To this end, the compound of Example 2 and the currently used oxazolidinone class Linezolid were examined for minimal inhibitory concentration (hereinafter, referred to as “MIC”) against Gram-positive strains and resistant bacteria including methicillin-resistant Staphylococcus aureus (MRSA) and vancomycin resistant enterococci by an agar dilution method using Muller-Hinton agar.
(§2) As used herein, the term MIC is intended to refer to the lowest concentration of an antibiotic that will inhibit the growth of a microorganism. MIC values are expressed as μg/ml. Bacterial strains used for this assay included Haemophilus influenza, Coagulase negative staphylococi, Staphylcoccus aureus (MRSA), Enterococcus faecalis (VER), Enterococcus faecium (VR 1, VR 2), and Vancomycin resistant enterococci 1˜6.
(§3) After being incubated for 18 hours in a Muller-Hinton broth, the strains were transferred to fresh broth at a concentration of approximately 10^7 CFU/ml. Isolates were distributed with a multipoint inoculator (MIC-2000 Dynatech) at 10^4 CFU per spot onto agar plates containing the compound of the Examples or Comparative Examples.

[2] = tested on: Vancomycin resistant enterococci 3; test: as above; settings: strain i: Vancomycin resistant enterococci 3; read-out: Inhibitory Activity (MIC)
From the text: as §1, §2, §3

[3] = tested on: Enterococcus faecium (VR 2); test: as above; settings: strain f: Enterococcus faecium (VR 2); read-out: Inhibitory Activity (MIC)
From the text: as §1, §2, §3

[4] = tested on: Enterococcus faecium (VR 1); test: as above; settings: strain e: Enterococcus faecium (VR 1); read-out: Inhibitory Activity (MIC)
From the text: as §1, §2, §3

[5] = tested on: Haemophilus influenza; test: as above; settings: read-out: Inhibitory Activity (MIC); strain a: Haemophilus infuenz
From the text: as §1, §2, §3

[6] = tested on: Staphylcoccus aureus (MRSA); test: as above; settings: Staphylococcus aureus; strain c: Staphylcoccus aureus (MRSA); read-out: Inhibitory Activity (MIC)
From the text: as §1, §2, §3

[7] = tested on: Vancomycin resistant enterococci 2; test: as above; settings: strain h: Vancomycin resistant enterococci 2; read-out: Inhibitory Activity (MIC)
From the text: as §1, §2, §3

[8] = tested on: Enterococcus faecalis (VRE); test: as above; settings: strain d: Enterococcus faecalis (VRE); read-out: Inhibitory Activity (MIC)
From the text: as §1, §2, §3

[9] = tested on: Coagulase negative staphylococi; test: as above; settings: read-out: Inhibitory Activity (MIC); strain b: Coagulase negative staphylococi
From the text: as §1, §2, §3

[10] = tested on: Vancomycin resistant enterococci 4; test: organism not typed; settings: read-out: Inhibitory Activity (MIC)
From the text: as §1, §2, §3

[11] = tested on: Vancomycin resistant enterococci 6; test: organism not typed; settings: read-out: Inhibitory Activity (MIC)
From the text: as §1, §2, §3

[12] = tested on: Vancomycin resistant enterococci 5; test: organism not typed; settings: read-out: Inhibitory Activity (MIC)
From the text: as §1, §2, §3

[13] = tested on: Gram-positive strains and resistant bacteria including MRSA and vancomycin resistant enterococci; test: MIC by agar dilution, text summary over the strain panel; settings: read-out: MIC against Haemophilus influenza, Coagulase negative staphylococci and vancomycin resistant enterococci (VRE)
From the text: as §1, §2, §3

Compound | MIC [1] | MIC [2] | MIC [3] | MIC [4] | MIC [5] | MIC [6] | MIC [7] | MIC [8] | MIC [9] | MIC [10] | MIC [11] | MIC [12] | MIC [13]
CC(=O)NC[C@H]1CN(c2cc(F)c(N3CC(F)C4(CC4)C3)c(F)c2)C(=O)O1 (stereo partly drawn) [Example 2, (S)—N-{{3-[3,5-Difluoro-4-(7-fluoro-5-azaspiro[2,4]heptan-5-yl)phenyl]-2-oxo-5-oxazolidinyl}methyl}acetamide] | 3.12 µg/mL (≈ 8.15 µM) | 3.12 µg/mL (≈ 8.15 µM) | 1.56 µg/mL (≈ 4.08 µM) | 1.56 µg/mL (≈ 4.08 µM) | 0.781 µg/mL (≈ 2.04 µM) | 1.56 µg/mL (≈ 4.08 µM) | 1.56 µg/mL (≈ 4.08 µM) | 1.56 µg/mL (≈ 4.08 µM) | 0.781 µg/mL (≈ 2.04 µM) | 0.781 µg/mL (≈ 2.04 µM) | 0.781 µg/mL (≈ 2.04 µM) | 0.781 µg/mL (≈ 2.04 µM) | 
CC(=O)NC[C@H]1CN(c2ccc(N3CCOCC3)c(F)c2)C(=O)O1 [Linezolid, reference compound] |  |  |  |  | 3.12 µg/mL (≈ 9.26 µM) |  |  |  | 3.12 µg/mL (≈ 9.26 µM) |  |  |  | 1.56 to 3.12 µg/mL (≈ 4.63 to 9.26 µM)
